Results taken from publication PMC12520456, “Regulating Enzyme Activity via Microaggregates Mediated by Phase Separation” (Advanced Science, 2025).
Non-standard residues stand in square brackets, D forms with d. Residues, ends and D or L forms follow the SMILES beside them.

Tests used:
[1] = In vivo safety after intraperitoneal injection; set-up: species or system rat
Source text: For in vivo safety, rats receiving an intraperitoneal injection of DPMD were monitored for systemic toxicity and immune response. […] The heart and spleen likewise appeared normal, with no myocardial inflammation or splenic white pulp enlargement (Figure 5G,H). […] We acknowledge that longer‐term studies will be needed, but these initial results support the biosafety of DPMD as a therapeutic agent.
Figure 5 The favorable biosafety and biocompatibility of DPMD. A) The schematic diagram of therapeutic safety benefited from the DPMD. B&C) The blood corpuscle counting and immunotoxicity‐related blood biochemical indexes of rats treated with the DPMD or PBS using intraperitoneal administration. D) Hepatotoxicity measured by pathological section of liver, ALT (glutamic‐pyruvic transaminase), AST (glutamic‐oxalacetic transaminase), total bilirubin (TBIL) and inflammatory cytokines (IL‐6, TNF‐α, MCP‐1and NF‐κB) of liver. E) Nephrotoxicity test, including pathological section of kidney, CR (creatinine), BUN (Blood Urea Nitrogen), albumin (ALB) and inflammatory cytokines (IL‐6, TNF‐α, MCP‐1and NF‐κB) of kidney. […] G) Cardiotoxicity reflected by pathological section and inflammatory cytokines (IL‐6, TNF‐α, MCP‐1and NF‐κB) infiltrating in heart. H) The H&E staining of spleen sections, and IL‐6, TNF‐α, MCP‐1and NF‐κB cytokines were involved in safety detection of DPMD or PBS in spleen. The data from each group were presented as the mean ± SD. Scale bar: 100 µm. Statistical analysis in B‐G was performed using unpaired t‐test.

NIH-3T3 cells = type: cell-based; conditions: 48 h
Description: (§1) and the product's absorbance at […] was dynamically and real-time monitored using a microplate […]
During the chymotrypsin activity assay, DPMD was incorporated into chymotrypsin. The final concentration of chymotrypsin was set at 10 μg/mL, and the final concentration of DPMD was 5 mg/mL. In the corresponding control group, an equal volume of the buffer solution prepared by the kit was added. Subsequently, the enzyme-peptide mixture was added to the reaction system containing the substrate N-Benzoyl-L-Tyrosine Ethyl Ester (BTEE) at a ratio of 1:100 (where the proportion of the enzyme-peptide mixture solution was 1) for the detection of enzyme activity. The reaction was carried out at 25 ℃, and the product's absorbance at 256 nm was dynamically and real-time monitored using a microplate reader. The experimental result was represented by the enzyme reaction's degree of completion. All the tests were repeated three independent times.
NIH-3T3 cells were obtained from the National Collection of Authenticated Cell Cultures. HUVECs were obtained from Procell. All cells were maintained in DMEM media at 37°C with 5% CO₂. […] Cell viability was evaluated by the CCK-8 assay (Dojindo) at 1-, 3-, 5-, and 7-days post-treatment. […] The absorbance at 450 nm was recorded using a microplate reader […]

Trypsin = Trypsin activity assay (BAEE); type: biochemical; conditions: Figure 2C
Description: Then, cells were co-incubated with Cy5-labeled proteins (trypsinCy5 and chymotrypsinCy5) and DPMD treated proteins Cy5 for 30 min. Subsequently, cells were washed thrice with PBS, fixed with 4% paraformaldehyde, and the nucleus was dyed with DAPI. Observations were performed using a confocal microscope (Olympus, FV3000). This experiment was repeated three independent times. The mean fluorescence intensity was measured using Image J software. The fluorescence values were calculated after background subtraction (fluorescence intensity of regions without cells).
3.8 Measurements of ThT fluorescence
The 0.5% (w/v) aqueous peptide solutions, enzyme solutions, and peptide-enzyme mixtures were supplemented with thioflavin T (ThT, 100 μM, Aladdin). ThT Fluorescence assay was measured on a Steady-state and lifetime Fluorescence Spectrometer (FLS1000). […]
as §1
During the chymotrypsin activity assay, DPMD was incorporated into chymotrypsin. […] The reaction was carried out at 25 ℃, and the product's absorbance at 256 nm was dynamically and real-time monitored using a microplate reader. […]
NIH-3T3 cells were obtained from the National Collection of Authenticated Cell Cultures. […] Cell viability was evaluated by the CCK-8 assay (Dojindo) at 1-, 3-, 5-, and 7-days post-treatment. […]

[2] = system: trypsin and chymotrypsin in ascitic fluid; experiment: Ex vivo ascitic fluid from lethal POPF model: aggregates, FRAP, enzyme activity; type: biochemical, rat
Source text: This ex vivo evidence confirms that DPMD mitigates POPF via an LSPS‐based mechanism: by assembling leaking pancreatic enzymes into non‐fusing microaggregates, DPMD effectively isolates and inactivates the enzymes, thereby preventing proteolytic damage to surrounding tissues.
Figure S13. (A) The evaluation of fluorescence polarization of DPMD with different volumes ascites. ( B) Representative time -lapse FRAP images howling the pre -bleach and recovery signals of DPMD -treated asciteschymotrypsin ex vitro. Circles indicate the bleached area. Scale bars, 10 μm and 1 μm (zoomed -in image). (C) Time-lapse images of DPMD-ascites mixture aggregates, illustrating the non-fusion of two aggregates. (D) The inhibition evaluation of enzymes in ascites bioactivity for trypsin and chymotrypsin by DPMD.
(1 picture or pasted object on this page, not shown here)

[3] = intraperitoneal injection, 7 days post-treatment

SMILES: CC[C@@H](C)[C@@H](NC(=O)[C@@H](CCC(N)=O)NC(=O)[C@H](NC(=O)[C@@H](Cc1ccc(O)cc1)NC(=O)CNC(=O)[C@@H](CC(C)C)NC(=O)[C@H](NC(=O)[C@@H](CO)NC(=O)CNC(=O)[C@@H](C)NC(=O)[C@@H](CC(=O)O)NC(=O)[C@@H](C)NC(=O)[C@@H](CCCNC(=N)N)NC(=O)[C@@H](C)NC(=O)[C@@H](CC(=O)O)NC(=O)[C@@H](C)NC(=O)[C@@H](CCCNC(=N)N)NC(=O)[C@@H](C)NC(=O)[C@@H](CC(=O)O)NC(=O)[C@@H](C)NC(=O)[C@@H](CCCNC(=N)N)NC(=O)[C@@H](C)NC(=O)[C@@H](CC(=O)O)NC(=O)[C@@H](C)NC(=O)[C@H](N)CCCNC(=N)N)C(C)C)[C@H](C)CC)C(=O)N[C@H](CCCNC(=N)N)C(=O)O [DPMD, Ac‐(D‐RADA)4‐CONH2] (H-[dR][dA][dD][dA][dR][dA][dD][dA][dR][dA][dD][dA][dR][dA][dD][dA]G[dS][dV][dL]G[dY][dI][dQ][dI][dR]-OH; N-terminus and C-terminus assumed)
- blood cell counts (red and white cells, platelets) [1, 3]: remained within normal limits
- liver function tests (ALT, AST, total bilirubin) and kidney function markers (creatinine, BUN, albumin) [1, 3]: no signs of organ damage or dysfunction
- serum pro-inflammatory cytokine levels (IL-6, TNF-α, MCP-1, NF-κB) [1, 3]: indistinguishable from saline‐treated controls
- histopathological examination of major organs ([1]; liver, kidney, lung, heart, spleen, H&E): no microscopic evidence of toxicity
- cell viability (NIH-3T3 cells): > 90%
- suppression of enzymatic activity of Trypsin (Trypsin): almost complete extent
- fluorescence recovery after photobleaching of microaggregates in ascitic fluid ([2]; Figure S13B): minimal fluorescence recovery after photobleaching
- proteolytic activity of trypsin and chymotrypsin in ascitic fluid ([2]; Figure S13D): markedly suppressed
